The term IC50 denotes the point on the concentration scale where inhibition reaches its midpoint.

Holding throughout (format): cell-based
Assay [1] concerns A549 lung adenocarcinoma cells. As to the kind of experiment: MTS cytotoxicity assay, A549. The conditions noted are these: Homo sapiens, MTS method, 72 h incubation. The protocol:
(§1) Compounds 1, 4–8 were tested for the cytotoxicities against A549, CNE1-MP1, A375, and MCF-7 human cancer cell lines using MTS method.
(§2) Cytotoxic activity was tested against four human cancer cell lines (A549, CNE1-MP1, A375, and MCF-7) using the MTS method. For the MTS assay, the CellTiter 96® AQueous One Solution Reagent (Promega, Madison, WI, USA) was used following the manufacturer’s instruction. In a 96-well plate, each well was plated with 2–5 × 10^3 cells (It depends on the cell multiplication rate). […] The plate was incubated for 72 h at 37 °C in a humidified, 5% CO2 atmosphere. Proliferation assessed by adding 20 μL of MTS to each well in dark followed by a 90 min incubation at 37 °C. The assay plate was read at 490 nm using a microplate reader (Bio-Rad, Hercules, CA, USA). The assay was run in triplicate.

Assay [2] has as its system A375 malignant melanoma cells. As to the kind of experiment: MTS cytotoxicity assay, A375. The conditions noted are these: Homo sapiens, A-375, MTS method, 72 h incubation. The protocol:
as §1, §2
(Tetrazolium dyes change colour on reduction, which living cells bring about.)

The subject of assay [3] is MCF-7 breast cancer cells. As to the kind of experiment: MTS cytotoxicity assay, MCF-7. The conditions noted are these: Homo sapiens, MCF7, MTS method, 72 h incubation. The protocol:
as §1, §2

The test system of assay [4] is CNE1-LMP1 stable oncoprotein LMP1 integrated nasopharyngeal carcinoma cells. As to the kind of experiment: MTS cytotoxicity assay, CNE1-LMP1. The conditions noted are these: Homo sapiens, MTS method, 72 h incubation. The protocol:
as §1, §2

Assay [5] deals with HaCaT (human keratinocyte) cells. As to the kind of experiment: MTS cytotoxicity assay, HaCaT negative control cells. The conditions noted are these: MTS method, 72 h incubation.

Regarding `COc1cc(=O)oc(C(C)[C@H](C)O)c1C` (stereo partly drawn) [Compound 6, gulypyrone A], the half-maximal inhibitory concentration (IC50) in assay [1], in assay [2], in assay [3], in assay [4] and in assay [5] was over 100 µM each time.
`C[C@@]1(CO)[C@H](O)CC[C@@]2(C)[C@H]1CC[C@H]1C[C@@H]3C[C@@]12CC[C@]3(O)CO` [Compound 4, aphidicolin]: the IC50 in assay [1] came out at 16.2 µM; in assay [2], 37.3 µM; in assay [3], 42.3 µM; in assay [4], 3.12 µM; in assay [5], 10.4 µM.
For the compound `CC(=O)OC[C@@]1(O)CC[C@]23C[C@H]1C[C@@H]2CC[C@H]1[C@](C)(CO)[C@H](O)CC[C@@]13C` [Compound 5, aphidicolin-17-monoacetate], the IC50 in assay [1] came out at 5.2 µM; in assay [2], 40.5 µM; in assay [3], 66.2 µM; in assay [4], 4 µM; in assay [5] it was 8 µM.
Regarding `CC(=O)O[C@H]1C(=O)[C@@]2(C)[C@H]([C@H](OC(=O)c3ccccc3)[C@]3(O)C[C@H](OC(=O)[C@H](O)[C@@H](NC(=O)c4ccccc4)c4ccccc4)C(C)=C1C3(C)C)[C@]1(OC(C)=O)CO[C@@H]1C[C@@H]2O` [paclitaxel, reference compound], the IC50 in assay [1] was 0.03 µM; in assay [2] it was 0.0089 µM; in assay [3], 0.014 µM; in assay [4] it was 0.0042 µM; in assay [5] it was 0.024 µM.
For the compound `C=C[C@H]1C[C@@H](C)C[C@@H](C)[C@@H]1c1c(O)ccn(O)c1=O` [Compound 7 and 8, pyridoxatin rotamers A (7) and B (8)], the IC50 in assay [1] was 0.44 µM; in assay [2], 0.1 µM; in assay [3], 0.17 µM; in assay [4], 0.2 µM; in assay [5] it was over 47.5 µM.
`CC12COC(c3ccccc3)OC1CCC1(C)C2CCC2CC3CC21CCC3(O)CO` (stereo not drawn) [Compound 1, Inflatin G]: the IC50 amounted to 68.7 µM in assay [1]; 39.8 µM in assay [2]; 35.2 µM in assay [3]; 35.4 µM in assay [4]; 42.6 µM in assay [5].

(Values after article PMC6152040, “Isolation and Characterization of Aphidicolin Derivatives from Tolypocladium inflatum” (Molecules : A Journal of Synthetic Chemistry and Natural …, 2017).)
